# Test results taken from US5491135A (priority 1993, dated 1996).
# “And” between values parts separate entries of the source, which are not always exact repeats. Identical values can stand only once. “Also recorded” adds a separate entry of the source. Like-named read-outs stand apart in the source and are kept apart here.
# What was measured:
# [1] = tested on: clinical HCMV isolate; format: cell-based
# [2] = tested on: HCMV strain AD 169; assay: Rabbit model of HCMV chorioretinitis (Example 5); format: in vivo, pigmented rabbit; conditions: for histology: preliminary
# Description: A total of 32 pigmented rabbits were used in this study. Animals were evaluated by slit lamp and indirect ophthalmoscopy to determine normal ocular morphology and lack of preexisting pathology. Animals were handled as follows:
# [1] On day 0, all rabbits were inoculated by mid-vitreal injection of 10^5 PFU HCMV strain AD 169 in 100 μl.
# [2] Animals were maintained in individual cages and developing chorioretinal HCMV disease was monitored daily. On day 2 PI, HCMV-inoculated animals were divided into 8 groups of 4 rabbits each with matched chorioretinal disease scores. The HCMV-infected rabbits received intravenous therapy as indicated below:
# Group #1--4 animals, intravenous injection of high dose experimental drug (50 mg/kg) daily from day 2 through 10 PI. A total of 9 IV injections.
# Group #3--4 animals, intravenous injection of low dose experimental drug (20 mg/kg) daily from day 2 through 10 PI. A total of 9 IV injections.
# Group #4--4 animals, intravenous injection of high dose experimental drug (50 mg/kg) daily from day 2 through 10 PI (a total of 9 IV injections) plus high dose DHPG 10 mg/kg/day in 2 divided doses from day 2 through 10 PI (a total of 18 IV injections).
# Group #5--4 animals, intravenous injection of high dose experimental drug (50 mg/kg) daily from day 2 through 10 PI (a total of 9 IV injections) plus low dose DHPG 5 mg/kg/day in 2 divided doses from day 2 through 10 PI (a total of 18 IV injections).
# Group #6--4 animals, intravenous injection of low dose experimental drug (20 mg/kg) daily from day 2 through 10 PI (a total of 9 IV injections) plus low dose DHPG 5 mg/kg/day in 2 divided doses from day 2 through 10 PI (a total of 18 IV injections).
# Group #7--4 animals, intravenous injection of DHPG 10 mg/kg/day in 2 divided doses from day 2 through day 10 PI. A total of 18 IV injections.
# Group #8--4 animals, intravenous injection of sterile saline on days 2 through 10 PI.
# [3] All animals received daily indirect ophthalmoscopic examinations to evaluate clinical HCMV disease progression (From days 2 through 10 PI). The indirect ophthalmoscopic examinations were performed independently by two readers who were masked as to the therapy that the rabbits were receiving.
# [4] All animals were sacrificed on day 12 PI. Chorioretina and iris tissues and vitreous samples will be removed and processed for HCMV recovery by cell sonicate assay on Hs68 cell monolayers. Selected ocular and lung tissue samples were processed for histochemistry to evaluate HCMV-induced ocular pathology in treated and non-treated groups.
# The clinical, virus recovery and histological efficacy results for all drug-treated intravenous therapy groups were correlated with each other and with the placebo therapy group.
# [3] = tested on: HCMV strain AD 169; assay: Rabbit HCMV ascending dose efficacy and time course recovery (Example 7); conditions: for Vitreo-retinal score: sum of both eyes
# [4] = PALA 50 mg/kg every other day i.v.
# [5] = PALA 20 daily, alone or + DHPG 5 mg/kg i.v.
# [6] = PALA 50 daily, DHPG 10/day, or PALA 50 + DHPG 10 or 5 mg/kg i.v.
# [7] = day 3, PALA 75 mg/kg/d, with or without steroid
# [8] = day 3, PALA 50 or DHPG 10 mg/kg/d
# [9] = day 4, PALA 75 mg/kg/d, with or without steroid
# [10] = day 4, PALA 50 or DHPG 10 mg/kg/d
# [11] = day 5, PALA 75 mg/kg/d, with or without steroid
# [12] = day 5, PALA 50 or DHPG 10 mg/kg/d
# [13] = day 6, PALA 75 mg/kg/d, with or without steroid
# [14] = day 6, PALA 50 or DHPG 10 mg/kg/d
# [15] = day 7, PALA 75 mg/kg/d, with or without steroid
# [16] = day 12, PALA 75 mg/kg/d, with or without steroid
# [17] = day 12, PALA 50 or DHPG 10 mg/kg/d
smiles,measurement,setting,value
O=C(O)C[C@H](NC(=O)CP(=O)(O)O)C(=O)O [PALA],reduction of HCMV titer,[1],effective in reducing the titer
same,log reduction at 10 µg/mL,"[1]; Human betaherpesvirus 5, Hs68, read-out: viral yield reduction",2 to 3
same,Cell associated HCMV titer,[1]; day 0 PI,10^2 PFU/ml
same,Cell free (supernatant) HCMV titer,[1]; day 0 PI,10^5 PFU/ml
same,Cell associated HCMV titer,[1]; day 1 PI,10^3 PFU/ml
same,Cell free (supernatant) HCMV titer,[1]; day 1 PI,10^2 PFU/ml
same,Cell associated HCMV titer,[1]; day 2 PI,10^2 PFU/ml
same,Cell free (supernatant) HCMV titer,[1]; day 2 PI,10^1 PFU/ml
same,Cell associated HCMV titer,[1]; day 3 PI,10^1 PFU/ml
same,Cell free (supernatant) HCMV titer,[1]; day 3 PI,10^2 PFU/ml
same,Cell associated HCMV titer,[1]; day 4 PI,10^1 PFU/ml
same,Cell free (supernatant) HCMV titer,[1]; day 4 PI,10^1 PFU/ml
same,Cell associated HCMV titer,[1]; day 5 PI,0 PFU/ml
same,Cell free (supernatant) HCMV titer,[1]; day 5 PI,10^1 PFU/ml
same,Cell associated HCMV titer,[1]; day 6 PI,10^1 PFU/ml
same,Cell associated HCMV titer,[1]; day 7 PI,10^1 PFU/ml
same,histology,[2]; PALA 20 mg/kg daily i.v.,diffuse disease with moderate to severe chorioretinal disease
same,histology,[2]; PALA 50 mg/kg daily i.v.,moderate areas of chorioretinal HCMV disease restricted to the inner retina
same,HCMV recovery day 12 PI,[2]; [4],No HCMV was recovered
same,clinical efficacy,[2]; [4],marginally effective
same,lung appearance at sacrifice,[2]; [4],clear and non congested
same,optic nerve head edema and redness,[2]; [4],severe on days 3-4 PI
same,vitreitis severity,[2]; [4],moderate to severe levels within 3-4 days post inoculation
same,HCMV recovery day 12 PI,[2]; [5],No HCMV was recovered
same,clinical efficacy,[2]; [5],not effective
same,HCMV recovery day 12 PI,[2]; [6],No HCMV was recovered
same,clinical efficacy,[2]; [6],only marginally effective; also recorded: not effective
same,lung appearance at sacrifice,[2]; [6],clear and non congested
same,vitreitis severity,[2]; [6],moderate levels within 3-4 days post inoculation
same,interstitial pneumonitis,"[2]; rabbit, in vivo",prevented interstitial pneumonitis
same,HCMV recovery vs placebo,[3]; PALA 75 mg/kg/day,comparable to placebo therapy
same,clinical disease / efficacy,"[3]; PALA 75 mg/kg/day i.v., with or without steroid",vitreitis increased through day 6 post inoculation; also recorded: not improved when compared to the 50 mg/kg/day PALA dose or to the 10 mg/kg/day DHPG dose
same,HCMV recovery vs placebo,[3]; PALA 100 mg/kg/day,significantly higher than HCMV recovery in placebo treated animals
same,clinical disease / efficacy,[3]; PALA 100 mg/kg/day i.v.,"Both the vitreitis and optic nerve head disease severity were increased compared to other single-agent PALA, DHPG and placebo therapies; also recorded: not effective in reducing the clinical disease progression or HCMV recovery"
same,toxicity,[3]; PALA 100 mg/kg/day i.v.,toxic to the animals; also recorded: animal died prior
same,clinical disease / efficacy,[3]; PALA 50 or DHPG 10 mg/kg/day i.v.,vitreitis increased through day 6 post inoculation; also recorded: optic nerve head pathology peaked on day 4 after inoculation and decreased to low levels
same,"HCMV Recovered, OD",[3]; [7],+
same,"HCMV Recovered, OS",[3]; [7],+
same,"HCMV Titer, OD",[3]; [7],10^5 pfu and 10^4 pfu
same,"HCMV Titer, OS",[3]; [7],10^4 pfu
same,HCMV recovery frequency,[3]; [7],4/4
same,Optic neuritis score (ONH),[3]; [7],2.0
same,Vitreo-retinal score,[3]; [7],2.25 and 1.5
same,Average HCMV titer,"[3]; day 3, PALA 100 mg/kg/d",10^4 pfu
same,"HCMV Recovered, OD","[3]; day 3, PALA 100 mg/kg/d",+
same,"HCMV Recovered, OS","[3]; day 3, PALA 100 mg/kg/d",+
same,"HCMV Titer, OD","[3]; day 3, PALA 100 mg/kg/d",10^4 pfu
same,"HCMV Titer, OS","[3]; day 3, PALA 100 mg/kg/d",10^3 pfu
same,HCMV recovery frequency,"[3]; day 3, PALA 100 mg/kg/d",4/4
same,Optic neuritis score (ONH),"[3]; day 3, PALA 100 mg/kg/d",2.0 and 3.0
same,Vitreo-retinal score,"[3]; day 3, PALA 100 mg/kg/d",1.0 and 0.75
same,"HCMV Recovered, OD",[3]; [8],+
same,"HCMV Recovered, OS",[3]; [8],+
same,"HCMV Titer, OD",[3]; [8],10^3 pfu and 10^4 pfu
same,"HCMV Titer, OS",[3]; [8],10^4 pfu and 10^3 pfu
same,HCMV recovery frequency,[3]; [8],4/4
same,Optic neuritis score (ONH),[3]; [8],2.0
same,Vitreo-retinal score,[3]; [8],1.0 and 1.5
same,"HCMV Recovered, OD",[3]; [9],+
same,"HCMV Recovered, OS",[3]; [9],+ and -
same,"HCMV Titer, OD",[3]; [9],10^4 pfu
same,"HCMV Titer, OS",[3]; [9],10^3 pfu
same,HCMV recovery frequency,[3]; [9],3/4
same,Optic neuritis score (ONH),[3]; [9],4.0 and 5.0
same,Vitreo-retinal score,[3]; [9],2.75 and 3.5
same,Average HCMV titer,"[3]; day 4, PALA 100 mg/kg/d",10^3 pfu
same,"HCMV Recovered, OD","[3]; day 4, PALA 100 mg/kg/d",+
same,"HCMV Recovered, OS","[3]; day 4, PALA 100 mg/kg/d",+
same,"HCMV Titer, OD","[3]; day 4, PALA 100 mg/kg/d",10^5 pfu and 10^3 pfu
same,"HCMV Titer, OS","[3]; day 4, PALA 100 mg/kg/d",10^3 pfu and 10^4 pfu
same,HCMV recovery frequency,"[3]; day 4, PALA 100 mg/kg/d",3/4
same,Optic neuritis score (ONH),"[3]; day 4, PALA 100 mg/kg/d",6.0 and 5.0
same,Vitreo-retinal score,"[3]; day 4, PALA 100 mg/kg/d",4.5 and 3.75
same,"HCMV Recovered, OD",[3]; [10],- and +
same,"HCMV Recovered, OS",[3]; [10],-
same,"HCMV Titer, OD",[3]; [10],10^4 pfu
same,HCMV recovery frequency,[3]; [10],1/4
same,Optic neuritis score (ONH),[3]; [10],2.0 and 3.0
same,Average HCMV titer,[3]; [11],10^2 pfu
same,"HCMV Recovered, OD",[3]; [11],-
same,"HCMV Recovered, OS",[3]; [11],- and +
same,"HCMV Titer, OS",[3]; [11],10^2 pfu
same,HCMV recovery frequency,[3]; [11],1/4
same,Optic neuritis score (ONH),[3]; [11],3.0 and 5.0
same,Vitreo-retinal score,[3]; [11],1.75 and 3.5
same,Average HCMV titer,"[3]; day 5, PALA 100 mg/kg/d",10^2 pfu
same,"HCMV Recovered, OD","[3]; day 5, PALA 100 mg/kg/d",-
same,"HCMV Recovered, OS","[3]; day 5, PALA 100 mg/kg/d",+ and -
same,"HCMV Titer, OS","[3]; day 5, PALA 100 mg/kg/d",10^2 pfu
same,HCMV recovery frequency,"[3]; day 5, PALA 100 mg/kg/d",1/4
same,HCMV titer,"[3]; day 5, PALA 100 mg/kg/d",10^2 pfu/ml
same,Optic neuritis score (ONH),"[3]; day 5, PALA 100 mg/kg/d",5.0 and 4.0
same,Vitreo-retinal score,"[3]; day 5, PALA 100 mg/kg/d",3.5 and 3.0
same,Average HCMV titer,[3]; [12],10^1 pfu
same,"HCMV Recovered, OD",[3]; [12],- and +
same,"HCMV Recovered, OS",[3]; [12],+ and -
same,"HCMV Titer, OD",[3]; [12],10^2 pfu
same,"HCMV Titer, OS",[3]; [12],10^2 pfu
same,HCMV recovery frequency,[3]; [12],2/4
same,Optic neuritis score (ONH),[3]; [12],1.0
same,Vitreo-retinal score,[3]; [12],0.65 and 1.25
same,"HCMV Titer, OS","[3]; day 6, PALA 50 mg/kg/d",10^3 pfu and 10^2 pfu
same,HCMV titer,"[3]; day 6, PALA 50 mg/kg/d",10^2 pfu/ml
same,"HCMV Recovered, OD",[3]; [13],+ and -
same,"HCMV Recovered, OS",[3]; [13],+ and -
same,"HCMV Titer, OD",[3]; [13],10^3 pfu
same,"HCMV Titer, OS",[3]; [13],10^4 pfu
same,HCMV recovery frequency,[3]; [13],3/4 and 2/4
same,Optic neuritis score (ONH),[3]; [13],2.0
same,"HCMV Recovered, OD","[3]; day 6, PALA 100 mg/kg/d",+
same,"HCMV Recovered, OS","[3]; day 6, PALA 100 mg/kg/d",- and +
same,"HCMV Titer, OD","[3]; day 6, PALA 100 mg/kg/d",10^2 pfu
same,"HCMV Titer, OS","[3]; day 6, PALA 100 mg/kg/d",10^3 pfu
same,HCMV recovery frequency,"[3]; day 6, PALA 100 mg/kg/d",3/4
same,Optic neuritis score (ONH),"[3]; day 6, PALA 100 mg/kg/d",4.0
same,Vitreo-retinal score,"[3]; day 6, PALA 100 mg/kg/d",4.0
same,Average HCMV titer,[3]; [14],10^2 pfu
same,"HCMV Recovered, OD",[3]; [14],+
same,"HCMV Recovered, OS",[3]; [14],+
same,"HCMV Titer, OD",[3]; [14],10^2 pfu
same,HCMV recovery frequency,[3]; [14],4/4
same,Optic neuritis score (ONH),[3]; [14],1.0 and 0.5
same,Vitreo-retinal score,[3]; [14],0.75 and 0.6
same,Optic neuritis score (ONH),[3]; [15],0
same,Vitreo-retinal score,[3]; [15],5.0
same,Optic neuritis score (ONH),"[3]; day 7, PALA 100 mg/kg/d",2.5 and 4.0
same,Vitreo-retinal score,"[3]; day 7, PALA 100 mg/kg/d",3.25 and 4.25
same,Vitreo-retinal score,"[3]; day 7, PALA 50 or DHPG 10 mg/kg/d",0.4
same,"HCMV Recovered, OD",[3]; [16],-
same,"HCMV Recovered, OS",[3]; [16],-
same,"HCMV Recovered, OD","[3]; day 12, PALA 100 mg/kg/d",-
same,"HCMV Recovered, OS","[3]; day 12, PALA 100 mg/kg/d",-
same,"HCMV Recovered, OD",[3]; [17],-
same,"HCMV Recovered, OS",[3]; [17],-
